Molecular target: T1, hFASN enzyme (full length) (Homo sapiens, UniProt P49327)
T1 construct: 10 μL hFASN enzyme (full length, 300 ng, purified in house); made in house
Experiment: Fatty Acid Synthase (FASN) inhibition scintillation proximity assay
Format: biochemical
Conditions: for inhibition at 10 µM: read-out: Human FASN % inhibition @ 10 μM, 10 μM test compound; for IC50: read-out: Human FASN pIC50 (converted)
Procedure: In this assay, inhibition of FASN activity is measured using ^3H-acetyl-CoA and malonyl-CoA as substrates. ^3H-Acetyl CoA is converted to ^3H-palmitate through a series of reactions by the FASN protein, which contains 7 functional domains and carries out 7 enzymatic reactions to ultimately produce ^3H-palmitate. The assay principle is based upon the fact that ^3H-acetyl-CoA is hydrophilic and the end product, ^3H-palmitate is hydrophobic.
10 μL assay buffer (100 mM KH2PO4 pH 7.5, 1 mM DTT) (20 μL in blanks) was added to a 384-well white optiplate plate (Perkin Elmer). 0.9 μL test compound (at concentrations of 30 μM, 10 μM, 3 μM, 1 μM, 0.30 μM, 0.10 μM, 0.03 μM and 0.01 μM)/DMSO and 10 μL hFASN enzyme (full length, 300 ng, purified in house) or 10 μL assay buffer was added to the wells. […] The reaction was stopped by adding 20 μL Streptavidin coupled imaging beads (25 mg/ml). After incubation for 30 minutes at room temperature in the dark, the 384 well plate was centrifuged at 1500 rpm for 3 minutes and was measured after at least 24 hrs by the LEADseeker™, measuring emission using a 610±20 nm pass filter.
where mLC and mHC were the means of the low control wells and high control wells on the plate, after manual exclusion of outliers. A plot of Controlmin versus test compound concentration was fitted to a 4-parameter logistic curve using a non-linear least squares regression method.

T1 sequence (P49327 whole entry): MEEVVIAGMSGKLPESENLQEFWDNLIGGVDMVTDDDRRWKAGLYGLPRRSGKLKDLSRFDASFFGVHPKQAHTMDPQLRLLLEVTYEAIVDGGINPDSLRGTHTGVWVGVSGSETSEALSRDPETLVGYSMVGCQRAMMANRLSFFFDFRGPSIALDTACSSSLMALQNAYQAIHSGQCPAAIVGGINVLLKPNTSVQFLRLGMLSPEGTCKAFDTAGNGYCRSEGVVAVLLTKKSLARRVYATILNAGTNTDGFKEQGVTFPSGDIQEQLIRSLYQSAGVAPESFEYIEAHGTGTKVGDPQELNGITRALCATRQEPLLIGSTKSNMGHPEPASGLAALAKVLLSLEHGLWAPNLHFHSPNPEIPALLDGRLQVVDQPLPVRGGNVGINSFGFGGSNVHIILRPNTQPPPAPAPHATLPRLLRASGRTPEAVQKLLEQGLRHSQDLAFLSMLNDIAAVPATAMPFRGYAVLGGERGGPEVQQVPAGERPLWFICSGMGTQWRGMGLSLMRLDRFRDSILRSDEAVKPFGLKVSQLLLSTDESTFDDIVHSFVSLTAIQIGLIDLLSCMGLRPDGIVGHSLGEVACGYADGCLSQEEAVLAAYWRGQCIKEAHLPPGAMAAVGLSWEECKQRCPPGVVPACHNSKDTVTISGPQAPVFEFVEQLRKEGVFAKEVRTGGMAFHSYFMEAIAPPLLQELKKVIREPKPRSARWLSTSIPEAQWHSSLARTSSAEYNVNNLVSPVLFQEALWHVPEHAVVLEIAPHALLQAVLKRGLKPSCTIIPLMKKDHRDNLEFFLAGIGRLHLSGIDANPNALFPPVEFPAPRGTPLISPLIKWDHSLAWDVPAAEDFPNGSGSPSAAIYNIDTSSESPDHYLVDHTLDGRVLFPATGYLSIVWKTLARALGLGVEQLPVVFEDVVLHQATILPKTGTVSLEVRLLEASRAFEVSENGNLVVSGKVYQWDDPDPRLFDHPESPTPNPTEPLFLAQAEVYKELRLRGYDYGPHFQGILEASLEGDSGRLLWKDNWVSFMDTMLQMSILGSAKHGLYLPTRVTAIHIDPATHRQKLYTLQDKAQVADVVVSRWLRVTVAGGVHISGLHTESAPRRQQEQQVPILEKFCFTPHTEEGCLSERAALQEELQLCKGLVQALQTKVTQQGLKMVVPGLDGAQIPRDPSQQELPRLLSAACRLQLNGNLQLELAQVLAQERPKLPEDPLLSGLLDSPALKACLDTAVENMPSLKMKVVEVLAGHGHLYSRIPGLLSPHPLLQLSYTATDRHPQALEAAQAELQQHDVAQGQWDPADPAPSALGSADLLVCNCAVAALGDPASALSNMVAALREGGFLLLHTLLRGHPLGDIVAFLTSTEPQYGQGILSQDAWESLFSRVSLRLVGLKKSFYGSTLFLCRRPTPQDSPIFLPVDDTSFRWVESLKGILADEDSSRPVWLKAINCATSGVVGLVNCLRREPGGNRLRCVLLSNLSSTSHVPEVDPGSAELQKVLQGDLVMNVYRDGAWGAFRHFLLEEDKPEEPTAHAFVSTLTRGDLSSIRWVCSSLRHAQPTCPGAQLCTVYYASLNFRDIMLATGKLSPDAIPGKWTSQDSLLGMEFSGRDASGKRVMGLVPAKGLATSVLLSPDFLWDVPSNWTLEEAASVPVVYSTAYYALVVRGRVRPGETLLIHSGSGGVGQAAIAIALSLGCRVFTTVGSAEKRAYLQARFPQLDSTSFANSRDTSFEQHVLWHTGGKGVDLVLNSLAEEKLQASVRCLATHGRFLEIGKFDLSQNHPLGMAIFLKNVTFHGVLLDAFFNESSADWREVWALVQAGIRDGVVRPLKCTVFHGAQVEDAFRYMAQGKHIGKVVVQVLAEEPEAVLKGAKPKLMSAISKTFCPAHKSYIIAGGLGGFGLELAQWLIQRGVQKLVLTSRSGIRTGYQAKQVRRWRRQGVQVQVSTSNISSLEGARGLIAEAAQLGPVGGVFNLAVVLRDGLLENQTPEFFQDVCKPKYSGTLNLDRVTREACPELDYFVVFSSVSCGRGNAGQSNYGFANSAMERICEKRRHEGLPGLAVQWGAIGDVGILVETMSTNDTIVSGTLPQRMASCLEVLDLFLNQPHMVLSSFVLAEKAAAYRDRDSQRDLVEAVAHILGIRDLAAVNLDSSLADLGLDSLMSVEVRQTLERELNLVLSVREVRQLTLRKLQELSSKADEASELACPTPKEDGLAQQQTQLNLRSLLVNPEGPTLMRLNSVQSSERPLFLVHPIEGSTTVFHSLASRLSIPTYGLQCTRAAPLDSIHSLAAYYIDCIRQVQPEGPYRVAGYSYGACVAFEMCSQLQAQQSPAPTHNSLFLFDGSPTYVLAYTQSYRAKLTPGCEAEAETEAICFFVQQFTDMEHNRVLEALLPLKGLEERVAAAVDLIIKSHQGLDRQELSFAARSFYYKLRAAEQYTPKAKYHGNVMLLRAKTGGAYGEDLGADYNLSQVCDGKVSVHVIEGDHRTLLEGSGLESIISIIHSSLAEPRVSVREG

Structure (SMILES) | inhibition at 10 µM [%] | IC50 [nM]
CC(C)C(=O)N1CCC2(CC1)N=C(c1ccc(-c3ccc4cnccc4c3)cc1)N(C[C@@H]1CCN(C(=O)C3CC3)C1)C2=O [compound 143, 3-{[(3R)-1-(Cyclopropylcarbonyl)pyrrolidin-3-yl]methyl}-2-(4-isoquinolin-6-ylphenyl)-8-(2-methylpropanoyl)-1,3,8-triazaspiro[4.5]dec-1-en-4-one] | 119 | 36.3
CC(=O)N1CCC2(CC1)N=C(c1ccc(-c3ccc4cnccc4c3)cc1)N(C[C@@H]1CCN(C(=O)C3CC3)C1)C2=O [compound 144, 8-Acetyl-3-{[(3R)-1-(cyclopropylcarbonyl)pyrrolidin-3-yl]methyl}-2-(4-isoquinolin-6-ylphenyl)-1,3,8-triazaspiro[4.5]dec-1-en-4-one] | 117 | 63.1
CN(C)c1cccc(-c2ccc(C3=NC4(CC4)C(=O)N3C[C@@H]3CCN(C(=O)C4CC4)C3)cc2)c1 [compound 145, 6-{[(3R)-1-(Cyclopropylcarbonyl)pyrrolidin-3-yl]methyl}-5-[3′-(dimethylamino)biphenyl-4-yl]-4,6-diazaspiro[2.4]hept-4-en-7-one] | 106 | 398
O=C(C1CC1)N1CC[C@@H](CN2C(=O)C3(CC3)N=C2c2ccc(-c3cccc(OC(F)(F)F)c3)cc2)C1 [compound 146, 6-{[(3R)-1-(Cyclopropylcarbonyl)pyrrolidin-3-yl]methyl}-5-[3′-(trifluoromethoxy)biphenyl-4-yl]-4,6-diazaspiro[2.4]hept-4-en-7-one] | 38 | > 10000
CC(=O)N1CCC2(CC1)N=C(c1ccc(-c3ccc4[nH]ccc4c3)cc1)N(C[C@@H]1CCN(C(=O)C3CC3)C1)C2=O [compound 147, (R)-2-(4-(1H-Indol-5-yl)phenyl)-8-acetyl-3-((1-(cyclopropanecarbonyl)pyrrolidin-3-yl)methyl)-1,3,8-triazaspiro[4.5]dec-1-en-4-one] | 89.5 | 70.8
CC(=O)N1CCC2(CC1)N=C(c1ccc(-c3ccc4[nH]ncc4c3)cc1)N(C[C@@H]1CCN(C(=O)C3CC3)C1)C2=O [compound 148, 8-Acetyl-3-{[(3R)-1-(cyclopropylcarbonyl)pyrrolidin-3-yl]methyl}-2-[4-(1H-indazol-5-yl)phenyl]-1,3,8-triazaspiro[4.5]dec-1-en-4-one] | 105 | 302
CC(=O)N1CCC2(CC1)N=C(c1ccc(-c3ccc4occc4c3)cc1)N(C[C@@H]1CCN(C(=O)C3CC3)C1)C2=O [compound 150, 8-Acetyl-2-[4-(1-benzofuran-5-yl)phenyl]-3-{[(3R)-1-(cyclopropylcarbonyl)pyrrolidin-3-yl]methyl}-1,3,8-triazaspiro[4.5]dec-1-en-4-one] | 113 | 105
CC(C)C(=O)N1CCC2(CC1)N=C(c1ccc(-c3ccc4occc4c3)cc1)N(C[C@@H]1CCN(C(=O)C3CC3)C1)C2=O [compound 151, 2-[4-(1-Benzofuran-5-yl)phenyl]-3-{[(3R)-1-(cyclopropylcarbonyl)pyrrolidin-3-yl]methyl}-8-(2-methylpropanoyl)-1,3,8-triazaspiro[4.5]dec-1-en-4-one] | 112 | 129
O=C(C1CC1)N1CCC2(CC1)N=C(c1ccc(-c3ccc4occc4c3)cc1)N(C[C@@H]1CCN(C(=O)C3CC3)C1)C2=O [compound 152, 2-[4-(1-Benzofuran-5-yl)phenyl]-8-(cyclopropylcarbonyl)-3-{[(3R)-1-(cyclopropylcarbonyl)pyrrolidin-3-yl]methyl}-1,3,8-triazaspiro[4.5]dec-1-en-4-one] | 123 | 123
CN(C)CC(=O)N1CCC2(CC1)N=C(c1ccc(-c3ccc4occc4c3)cc1)N(C[C@@H]1CCN(C(=O)C3CC3)C1)C2=O [compound 153, 2-[4-(1-Benzofuran-5-yl)phenyl]-3-{[(3R)-1-(cyclopropylcarbonyl)pyrrolidin-3-yl]methyl}-8-(N,N-dimethylglycyl)-1,3,8-triazaspiro[4.5]dec-1-en-4-one] | 116 | 105

The remaining lines, values ahead:

inhibition at 10 µM [%] | IC50 [nM] | Structure (SMILES)
109 | 269 | CN(C)CC(=O)N1CCC2(CC1)N=C(c1ccc(-c3ccc4cnccc4c3)cc1)N(CC1CN(C(=O)C3CC3)C1)C2=O [compound 154, 3-{[1-(Cyclopropylcarbonyl)azetidin-3-yl]methyl}-8-(N,N-dimethylglycyl)-2-(4-isoquinolin-6-ylphenyl)-1,3,8-triazaspiro[4.5]dec-1-en-4-one]
96.5 | 776 | Cc1cc2cc(-c3ccc(C4=NC5(CCNCC5)C(=O)N4C[C@@H]4CCN(C(=O)C5CC5)C4)cc3)ccc2o1 [compound 155]
108 | 191 | COc1cc(-c2ccc3occc3c2)ccc1C1=NC2(CCCC2)C(=O)N1C[C@@H]1CCN(C(=O)C2CC2)C1 [compound 156, 2-[4-(1-Benzofuran-5-yl)-2-methoxyphenyl]-3-{[(3R)-1-(cyclopropylcarbonyl)pyrrolidin-3-yl]methyl}-1,3-diazaspiro[4.4]non-1-en-4-one]
112 | 67.6 | COc1cc(-c2ccc3[nH]ccc3c2)ccc1C1=NC2(CCCC2)C(=O)N1C[C@@H]1CCN(C(=O)C2CC2)C1 [compound 157, 3-{[(3R)-1-(Cyclopropylcarbonyl)pyrrolidin-3-yl]methyl}-2-[4-(1H-indol-5-yl)-2-methoxyphenyl]-1,3-diazaspiro[4.4]non-1-en-4-one]
33 | > 10000 | O=C(C1CC1)N1CCC(CN2C(=O)C3(CC3)N=C2c2ccc(-c3cccc(F)c3)cc2)CC1 [compound 158, 6-{[1-(Cyclopropylcarbonyl)piperidin-4-yl]methyl}-5-(3′-fluorobiphenyl-4-yl)-4,6-diazaspiro[2.4]hept-4-en-7-one]
116 | 79.4 | O=C(C1CC1)N1CC[C@@H](CN2C(=O)C3(CCN(CCO)CC3)N=C2c2ccc(-c3ccc4cnccc4c3)cc2)C1 [compound 159, 3-{[(3R)-1-(Cyclopropylcarbonyl)pyrrolidin-3-yl]methyl}-8-(2-hydroxyethyl)-2-(4-isoquinolin-6-ylphenyl)-1,3,8-triazaspiro[4.5]dec-1-en-4-one]
29.3 | > 10000 | CC(=O)N1CCC2(CC1)N=C(c1ccc(-c3ccc4c(c3)CCN(C(C)=O)C4)cc1)N(C[C@@H]1CCN(C(=O)C3CC3)C1)C2=O [compound 160]
16 | > 10000 | CC(=O)N1CCC2(CC1)N=C(c1ccc(C3=CC4CCN(C(C)=O)CC4C=C3)cc1)N(C[C@@H]1CCN(C(=O)C3CC3)C1)C2=O (stereo partly drawn) [compound 161, 8-Acetyl-2-[4-(2-acetyl-1,2,3,4,4a,8a-hexahydroisoquinolin-6-yl)phenyl]-3-{[(3R)-1-(cyclopropylcarbonyl)pyrrolidin-3-yl]methyl}-1,3,8-triazaspiro[4.5]dec-1-en-4-one]
110 | 229 | CC(C)N1CCC2(CC1)N=C(c1ccc(-c3ccc4cnccc4c3)cc1)N(C[C@@H]1CCN(C(=O)C3CC3)C1)C2=O [compound 163]
115 | 39.8 | CN(C)CC(=O)N1CCC2(CC1)N=C(c1ccc(-c3ccc4[nH]ccc4c3)cc1)N(C[C@@H]1CCN(C(=O)C3CC3)C1)C2=O [compound 164, 3-{[(3R)-1-(Cyclopropylcarbonyl)pyrrolidin-3-yl]methyl}-8-(N,N-dimethylflycyl)-2-[4-(1H-indol-5-yl)phenyl]-1,3,8-triazaspiro[4.5]dec-1-en-4-one]
108 | 229 | CN(C)CC(=O)N1CCC2(CC1)N=C(c1ccc(-c3ccc4[nH]ncc4c3)cc1)N(C[C@@H]1CCN(C(=O)C3CC3)C1)C2=O [compound 165, 3-{[(3R)-1-(Cyclopropylcarbonyl)pyrrolidin-3-yl]methyl}-8-(N,N-dimethylglycyl)-2-[4-(1H-indazol-5-yl)phenyl]-1,3,8-triazaspiro[4.5]dec-1-en-4-one]
71.6 | 3390 | CC(C)N1CCC2(CC1)N=C(c1ccc(-c3ccc4occc4c3)cc1)N(CC1CN(C(=O)C3CC3)C1)C2=O [compound 166, 2-[4-(1-Benzofuran-5-yl)phenyl]-3-{[1-(cyclopropylcarbonyl)azetidin-3-yl]methyl}-8-(1-methylethyl)-1,3,8-triazaspiro[4.5]dec-1-en-4-one]
96.4 | 525 | CC(C)N1CCC2(CC1)N=C(c1ccc(-c3ccc4occc4c3)cc1)N(C[C@@H]1CCN(C(=O)C3CC3)C1)C2=O [compound 167, 2-[4-(1-Benzofuran-5-yl)phenyl]-3-{[(3R)-1-(cyclopropylcarbonyl)pyrrolidin-3-yl]methyl}-8-(1-methylethyl)-1,3,8-triazaspiro[4.5]dec-1-en-4-one]
108 | 145 | O=C(C1CC1)N1CC[C@@H](CN2C(=O)C3(CCN(CCO)CC3)N=C2c2ccc(-c3ccc4occc4c3)cc2)C1 [compound 168, 2-[4-(1-Benzofuran-5-yl)phenyl]-3-{[(3R)-1-(cyclopropylcarbonyl)pyrrolidin-3-yl]methyl}-8-(2-hydroxyethyl)-1,3,8-triazaspiro[4.5]dec-1-en-4-one]

— patent US10077261B2, “Imidazolin-5-one derivative useful as FASN inhibitors for the treatment of cancer” (Janssen Pharmaceutica NV, priority 2012, dated 2018)
